Measurements as given in US6699477B2, “EBV CTL epitopes” (The Council of the Queensland Institute of Medical Research, priority 1996, dated 2004).
Read-outs that look alike come from different tables or passages of the source.

Legend:
[1] = tested on: EBV; details: Table 4; cited from earlier work
[2] = tested on: EBV; assay: EBV type of CTL epitopes of the invention (Table 3); type: cell-based, Epstein-Barr virus
[3] = tested on: HLA; details: Table 4; cited from earlier work
[4] = tested on: T cell precursors; assay: Limiting dilution cultures, epitope specific precursor frequency; details: PBL of donor stimulated by autologous type B cells; assayed 12 weeks later
[5] = tested on: B-type epitope CTL; assay: HLA-restriction CTL assay of type B-specific epitope, cell lines with or without specific peptide; type: cell-based, human; details: QNGALAINTF specific CTLs, peptide-incubated targets of known HLA specificity
Experimental: (§1) Limiting dilution cultures were established by distributing PBL from the fourth bleed in 24 replicates at 2×10^4 cells per well in 96-well round-bottomed microtitre plates. Doubling dilutions were made to a final concentration of 1.6×10^2 per well. Approximately 1×10^4 γ-irradiated (8000 rads) autologous type B (EW-Ag-876) LCLs were added to each well as both feeder and stimulator cells to a total volume of 100 μl. Cultures were fed on days 4 and 7 with 50 μl of T cell growth medium and assayed on day 10 or later. The plates were subcultured and maintained in T cell growth medium and stimulated with γ-irradiated EW-Ag-876 LCLs. Initial assays were against type A and type B LCLs and subsequently against peptide-coated PHA-blasts or LCLs. Precursor frequencies were determined by a modification of the method of maximum likelihood estimation (11). Assessment of peptide specific activity. For determination of the antigenic specificity at the peptide level, a set of 20-mer overlapping peptides of EBNA-6B (residues 100-1069 (46)) was prepared using a kit and software distributed by Chiron Mimotopes (Chiron Corporation, Sydney, Australia). Nine-mer and 10-mer overlapping peptides with unblocked C and N termini were manufactured by Chiron Mimotopes. Labelled target cells were preincubated with overlapping peptides in the 96-well trays for 30-60 minutes before adding effectors. […]

[6] = tested on: CTL culture B5; assay: Identification of specific peptide target, overlapping peptides on autologous PHA blasts; type: cell-based, human; details: peptides preincubated with autologous PHA blasts
Experimental: as §1

[7] = tested on: HLA; details: Table 3

Sequence	EBV Type [1]	EBV Type [2]	further results
DEPASTEPVHDQLL	Type 1	–	–
VSFIEFVGW	Type 1	–	–
RRRWRRLTV	Type 1	–	–
VELTPYKPTW	–	Type 1	–
TYSAGIVQI	–	Type 1	–
VEITPYKPTW	Type 1	–	–
HLAAQGMAY	Type 1	–	–
SVRDRLARL	Type 1 & 2	–	HLA Rest. [3]: HLA A2
QVKWRMTTL	–	Type 2	–
QNGALAINTF [residues 213-222 of EBNA-6B]	–	Type 2	Frequency (epitope specific T cell precursors) [4]: 1/16395; HLA restriction [5]: B62 (B15)-restricted; Recognition by type B specific culture B5 [6]: minimal epitope
VFSDGRVAC	–	Type 1	–
FLRGRAYGL	Type 1	–	HLA Rest. [3]: HLA B8
VSSDGRVPC	–	Type 1	–
TSLYNLRRGTALA	Type 1 & 2	–	HLA Rest. [3]: HLA DR1
TVFYNIPPMPL	Type 1	–	HLA Rest. [3]: HLA DQ2
CLGGLLTMV	Type 1 & 2	–	HLA Rest. [3]: HLA A2
VSSDGRVAC	–	Type 1	–
VPAPAGPIV	–	Type 1	–
DTPLIPLTIF	Type 1	–	–

Sequence	EBV Type [1]	EBV Type [2]	further results
VSSEGRVAC	–	Type 1	–
VEITPYEPTG	–	Type 1	–
VPAPPVGPIV	–	Type 1	–
RRIYDLIKL	–	Type 1	–
RLRAEAGVK	Type 1	–	HLA Rest. [3]: HLA A3
QNAARTLNTF [reference compound]	–	–	Recognition by type B specific culture B5 [6]: nonreactive
VSSDGQVAC	–	Type 1	–
RPPIFIRRL	Type 1	–	HLA Rest. [3]: HLA B7
VSSDGRVVC	–	Type 1	HLA restriction [7]: HLA A29
EENLLDFVRF	Type 1 & 2	–	–
AVLLHEESM	Type 1	–	–
LPGPQVTAVLLHEES	Type 1	–	–
RYSIFFDY	Type 1	–	–
VSSDGLVAC	–	Type 1	–
KEHVIQNAF	Type 1	–	–
NPTQAPVIQLVHAVY	Type 1	–	–
QPRAPIRPI	Type 1 & 2	–	HLA Rest. [3]: HLA B7
VEITPYEPTW	–	Type 1	–
